Read-outs that look alike come from different tables or passages of the source. Numbered stars: 1 amine (or outer) side, 2 acyl side, 3 side chain; on linkers, the order of the positions; unused ones are H or OH. Bridge positions count the residues as written; N and C are the ends. Side chains are listed from the residue outwards. Peptide text beside a SMILES is read from it. * marks the point of attachment. C20 diacid = O=C(O)CCCCCCCCCCCCCCCCCCC(=O)*; γGlu = O=C(O)[C@H](CCC(=O)[*:2])N[*:1]; AEEA = NCCOCCOCC(=O)O
Tests used:
[1] = ASSAY (IV) determination of solubility; assay type: physicochemical
Summary of the method: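 Polypeptide in water at […] mixed 1:1 with 100 mM buffers of pH 3.0-8.0 (glycylglycine pH 3-5, bistrispropane pH 6-8). Held 18 h at room temperature, then centrifuged; concentration remaining in solution measured by UPLC.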

[2] = biological target: T1, human amylin receptor (membranes from Amylin 3(a)/CRE-luc cells) (Homo sapiens, UniProt O60896+P30988); test: ASSAY (V) binding to the human amylin receptor (SPA, 125I-rat amylin);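 note: competition binding of cell membranes (35 ng/µL) mixed with SPA beads in 384-well plates at 40 µL total volume, read by scintillation counting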
T1 construct: expressed in transfected cells
T1 sequence (P30988 25-474): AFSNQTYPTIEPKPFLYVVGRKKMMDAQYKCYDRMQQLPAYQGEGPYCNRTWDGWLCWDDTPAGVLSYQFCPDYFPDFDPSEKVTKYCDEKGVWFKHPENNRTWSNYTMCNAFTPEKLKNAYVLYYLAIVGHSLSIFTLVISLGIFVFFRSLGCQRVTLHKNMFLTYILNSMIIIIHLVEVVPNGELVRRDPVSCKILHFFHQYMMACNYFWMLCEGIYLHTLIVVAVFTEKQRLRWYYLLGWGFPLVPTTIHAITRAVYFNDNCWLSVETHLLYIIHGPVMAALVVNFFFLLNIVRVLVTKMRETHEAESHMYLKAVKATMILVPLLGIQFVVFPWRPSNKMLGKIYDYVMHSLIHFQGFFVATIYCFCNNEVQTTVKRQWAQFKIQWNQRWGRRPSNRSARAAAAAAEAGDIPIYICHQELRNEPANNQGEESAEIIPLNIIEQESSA
T1 sequence (O60896 24-148 partner): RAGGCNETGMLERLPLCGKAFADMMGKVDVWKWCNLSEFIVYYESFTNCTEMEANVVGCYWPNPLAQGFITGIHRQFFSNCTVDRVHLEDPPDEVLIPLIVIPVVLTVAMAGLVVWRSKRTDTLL

[3] = biological target: T2, rat amylin receptor (rat calcitonin receptor + rat RAMP 3) (Rattus norvegicus, UniProt P32214+Q9JJ73); test: ASSAY (VI) binding to the rat amylin receptor; settings: Table 7; rat binding selectivity, rCTR IC50 / rAmylin-R IC50
T2 construct: expressed in transfected cells; host or cells: BHK tk'ts 13 (transient, FuGENE 6), membranes
T2 sequence (P32214 25-479 isoform P32214-2 limits assumed): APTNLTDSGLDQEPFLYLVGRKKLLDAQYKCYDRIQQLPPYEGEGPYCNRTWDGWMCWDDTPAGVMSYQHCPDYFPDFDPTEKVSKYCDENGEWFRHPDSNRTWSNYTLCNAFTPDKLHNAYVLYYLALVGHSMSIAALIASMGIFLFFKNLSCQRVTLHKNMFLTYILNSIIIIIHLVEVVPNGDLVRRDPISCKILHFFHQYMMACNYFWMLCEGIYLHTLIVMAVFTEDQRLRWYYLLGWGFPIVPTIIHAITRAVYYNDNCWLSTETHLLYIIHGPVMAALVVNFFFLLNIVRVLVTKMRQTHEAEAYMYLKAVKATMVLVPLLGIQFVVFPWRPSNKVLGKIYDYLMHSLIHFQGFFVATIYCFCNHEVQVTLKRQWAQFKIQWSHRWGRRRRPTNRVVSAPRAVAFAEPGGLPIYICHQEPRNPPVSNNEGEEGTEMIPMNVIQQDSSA
T2 sequence (Q9JJ73 23-147 partner): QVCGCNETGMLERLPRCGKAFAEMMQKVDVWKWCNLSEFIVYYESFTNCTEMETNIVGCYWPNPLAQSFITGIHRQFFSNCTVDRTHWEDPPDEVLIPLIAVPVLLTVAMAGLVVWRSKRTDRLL
Summary of the method: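 Binding to the rat amylin receptor was determined with membrane preparations. The receptor was expressed by transiently transfecting BHK tk′ts 13 cells with rat calcitonin receptor, using FuGENE® 6 (Roche) according to the manufacturer's recommendations. Roughly 48 hours later the cells were harvested and their membranes isolated.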

[4] = bistrispropane buffer, pH 6.5, read-out: Solubility pH 6.5 Concentration
[5] = bistrispropane buffer, pH 7.5, read-out: Solubility pH 7.5 Concentration
[6] = bistrispropane buffer, pH 6.0, read-out: Solubility pH 6.0 Concentration
[7] = bistrispropane buffer, pH 7.0, read-out: Solubility pH 7.0 Concentration
[8] = bistrispropane buffer, pH 8.0, read-out: Solubility pH 8.0 Concentration
[9] = glycylglycine buffer, pH 3.0, read-out: Solubility pH 3.0 Concentration
[10] = glycylglycine buffer, pH 4.0, read-out: Solubility pH 4.0 Concentration
[11] = glycylglycine buffer, pH 5.0, read-out: Solubility pH 5.0 Concentration
[12] = Table 5, selectivity, hCTR bind IC50 / hAmylin-R bind IC50
[13] = Table 7, human binding selectivity, included for comparison

Structure (SMILES)	solubility at 18 h [1, 4]	solubility at 18 h [1, 5]	solubility at 18 h [1, 6]	solubility at 18 h [1, 7]	solubility at 18 h [1, 8]	solubility at 18 h [1, 9]	solubility at 18 h [1, 10]	solubility at 18 h [1, 11]	Ratio hCT/hAmylin binding [2, 12]	Ratio hCT/hAmylin binding [2, 13]	Ratio rCT/rAmylin binding [3]	IC50 ([2]; Table 4, read-out: hAmylin-R bind IC50)
CC[C@H](C)[C@H](NC(=O)[C@H](C)NC(=O)CNC(=O)[C@H](Cc1ccccc1)NC(=O)[C@H](CC(N)=O)NC(=O)[C@@H]1CCCN1C(=O)[C@H](CO)NC(=O)[C@H](CO)NC(=O)[C@H](Cc1c[nH]cn1)NC(=O)[C@H](CCCNC(=N)N)NC(=O)[C@H](CC(C)C)NC(=O)[C@H](Cc1ccccc1)NC(=O)[C@H](CCC(=O)O)NC(=O)[C@H](C)NC(=O)[C@H](CC(C)C)NC(=O)[C@H](CCCNC(=N)N)NC(=O)[C@H](CCC(N)=O)NC(=O)[C@@H](NC(=O)[C@H](C)NC(=O)[C@@H]1CSSC[C@H](NC(=O)[C@@H](N)CCCCNC(=O)CC[C@H](NC(=O)CCCCCCCCCCCCCCCCCCC(=O)O)C(=O)O)C(=O)N[C@@H](CC(N)=O)C(=O)N[C@@H]([C@@H](C)O)C(=O)N[C@@H](C)C(=O)N[C@@H]([C@@H](C)O)C(=O)N1)[C@@H](C)O)C(=O)N1CCC[C@H]1C(=O)N[C@@H](CO)C(=O)N[C@@H](CO)C(=O)N[C@H](C(=O)N[C@@H](CC(N)=O)C(=O)N[C@H](C(=O)NCC(=O)N1CCC[C@H]1C(=O)N[C@@H](CC(N)=O)C(=O)N[C@H](C(=O)N1CCC[C@H]1C(N)=O)[C@@H](C)O)C(C)C)[C@@H](C)O [Example 114] (H-K([γGlu-C20 diacid])CNTATCATQRLAEFLRHSSPNFGAIPSSTNVGPNTP-NH2; disulfide 2-7 (inferred); N-terminus assumed)	≥ 200 µM	≥ 200 µM	≥ 200 µM	≥ 200 µM	≥ 200 µM	≥ 200 µM	≥ 200 µM	≥ 200 µM	0.5	0.5	1.1	
CC[C@H](C)[C@H](NC(=O)[C@H](C)NC(=O)CNC(=O)[C@H](Cc1ccccc1)NC(=O)[C@H](CC(N)=O)NC(=O)[C@@H]1CCCN1C(=O)[C@H](CO)NC(=O)[C@H](CO)NC(=O)[C@H](Cc1c[nH]cn1)NC(=O)[C@H](CCCNC(=N)N)NC(=O)[C@H](CC(C)C)NC(=O)[C@H](Cc1ccccc1)NC(=O)[C@H](CCC(=O)O)NC(=O)[C@H](C)NC(=O)[C@H](CC(C)C)NC(=O)[C@H](CCCNC(=N)N)NC(=O)[C@H](CCC(N)=O)NC(=O)[C@@H](NC(=O)[C@H](C)NC(=O)[C@@H]1CSSC[C@H](NC(=O)[C@H](CCCCN)NC(=O)COCCOCCNC(=O)COCCOCCNC(=O)CC[C@H](NC(=O)CCCCCCCCCCCCCCCCCCC(=O)O)C(=O)O)C(=O)N[C@@H](CC(N)=O)C(=O)N[C@@H]([C@@H](C)O)C(=O)N[C@@H](C)C(=O)N[C@@H]([C@@H](C)O)C(=O)N1)[C@@H](C)O)C(=O)N1CCC[C@H]1C(=O)N[C@@H](CO)C(=O)N[C@@H](CO)C(=O)N[C@H](C(=O)N[C@@H](CC(N)=O)C(=O)N[C@H](C(=O)NCC(=O)N[C@@H](CO)C(=O)N[C@@H](CC(N)=O)C(=O)N[C@H](C(=O)N1CCC[C@H]1C(N)=O)[C@@H](C)O)C(C)C)[C@@H](C)O [Example 20] ({C20 diacid-γGlu-AEEA-AEEA}-KCNTATCATQRLAEFLRHSSPNFGAIPSSTNVGSNTP-NH2; disulfide 2-7)	≥ 200 µM	≥ 200 µM	≥ 200 µM	≥ 200 µM	≥ 200 µM	≥ 200 µM	≥ 200 µM	≥ 200 µM	3.6	3.6	6.4	0.217 nM

— patent US9023789B2, “Amylin analogs and pharmaceutical compositions thereof” (Novo Nordisk A/S, priority 2012, dated 2015)
